Results on five molecules are retold here after patent US10011818B2, “Method for in vitro oocyte maturation” (CHINA AGRICULTURE UNIVERSITY, priority 2012, dated 2018).

Read-outs that look alike come from different tables or passages of the source.

Data set [1] deals with oocyte nuclear maturation. To be noted: cited from earlier work.
Data set [2] concerns oocyte maturation and embryonic development. To be noted: CNP pretreatment 100 nM alone, without extended IVM; cited from earlier work.
Data set [3] has as its system bovine oocytes. Kind of data set: Effect of CNP pre-IVM and extended IVM on developmental rate of bovine oocytes after IVF (cleavage, blastocyst). It counts as cell-based. To be noted: for No. of cleavage / cleavage (%) / No. of blastocysts / blastocysts (%): CNP 200 nM pre-IVM 6 h; for No. of cleavage: day 2; for cleavage (%): day 2, mean ± SEM; for No. of blastocysts: day 7; for blastocysts (%): day 7, mean ± SEM. How it is done:
(§1) Bovine ovaries were obtained from a local slaughterhouse, transported at 30-35° C. to the laboratory within 1 hour, and washed in warmed normal saline containing 2% Penicillin G-Streptomycin. Ovarian antral follicles (3-8 mm) were aspirated using an 18-gauge needle. cumulus-oocyte complexes (COCs) with homogenous oocyte cytoplasm and complete, compacted, and multilayered CCs (Grade-1) or complete but fewer than three layers of CCs (Grade-2), were collected using micropipettes.
(§2) Grade-1 and -2 COCs were washed in the washing buffer (HEPES-TCM199) for three times, and then washed in pre-IVM medium (TCM199 containing 3 mg/ml BSA and CNP at different concentrations (50, 100, 200 and 400 nM) for two times. After that, COCs were transfer into pre-IVM medium (pre-warmed for 2 hours) in 4-well plate (500 μl pre-IVM medium and 50 COCs in each well) and cultured for 6 hours at 38.5° C., in humidified air with 5% CO2. After pre-IVM phase, a proportion of COCs are digested with hyaluronidase to remove cumulus cells. To determine the most preferable concentration of CNP for pre-VIM, meiosis kinetics of oocytes was evaluated according to nuclear morphology using DAPI staining under a fluorescence microscope. The oocytes without pre-IVM phase are used as control.
After cultured in pre-IVM medium containing 200 nM CNP, COCs are further cultured in extended-IVM medium (TCM199 supplemented with 10 μg/ml FSH, […], 1 μg/ml E2, 10 ng/ml EGF, 10% FBS) at 38.5° C., in humidified air with 5% CO2. To determine the most preferable duration for extended-IVM, COCs were cultured for 24, 26 or 28 hours. In addition, COCs without pre-IVM phase, are also cultured in […] for 24, 26 or 28 hours as controls.
After maturation, the COCs were fertilized in BO medium for 8 hours at 39° C. under 5% CO2 in a humidified atmosphere. After fertilization, the presumptive zygotes were transferred to 100 μl CR1 culture medium droplets (15 zygotes in each droplets) at 39° C. in a humidified atmosphere. The culture medium was changed every 2 days during the culture period. The percentage cleavage and rates of subsequent embryo development to the blastocyst stage were recorded on day 2 and 7, respectively.

Data set [4] concerns oocyte meiotic arrest. To be noted: mice, Zhang et al., 2010; cited from earlier work.
The subject of data set [5] is bovine oocytes and subsequent preimplantation embryos.
The test system of data set [6] is bovine oocytes. Kind of data set: Effect of CNP pretreatment (pre-IVM) on meiotic resumption of bovine oocytes, nuclear morphology by DAPI staining. It counts as cell-based. To be noted: for No. of GV oocytes / No. of GVBD oocytes / GV oocytes (%) / GVBD oocytes (%): pre-IVM 6 hours; for GV oocytes (%) / GVBD oocytes (%): mean ± SEM. How it is done:
as §1, §2

The mark [7] stands for this setting: literature, chemical meiotic inhibitors.

For the molecule `CN(C)c1ncnc2nc[nH]c12` [6-DMAP], the “inhibitory effect on nuclear maturation” value in data set [1] (setting [7]) was “evident inhibitory effect”.
`O=C1CCCO1` [butyrolactone]: the “inhibitory effect on nuclear maturation” value in data set [1] (setting [7]) is recorded as “evident inhibitory effect”.
With `C[C@@H]1C[C@@H]([C@H](O)CC2CC(=O)NC(=O)C2)C(=O)[C@@H](C)C1` [cycloheximide], the “inhibitory effect on nuclear maturation” value in data set [1] (setting [7]) is on record as “evident inhibitory effect”.
With `CC[C@H](CO)Nc1nc(NCc2ccccc2)c2ncn(C(C)C)c2n1` [roscovitine], the “inhibitory effect on nuclear maturation” value in data set [1] is recorded as “evident inhibitory effect”.
As for C-type natriuretic peptide [CNP], the “oocyte maturation and embryonic development result” value in data set [2] was “could not lead to an evidently satisfying results”. In data set [3] (extended-IVM 24 h, after IVF), the No. of cleavage stood at 157, the “cleavage (%)” value is given as 81.3 ± 2.7%, the No. of blastocysts is on record as 53 and the “blastocysts (%)” value came to 27.5 ± 1.3%. Further, in data set [3] (extended-IVM 26 h, after IVF), the No. of cleavage is given as 89, the “cleavage (%)” value was determined as 87.1 ± 0.75%, the No. of blastocysts worked out at 62 and the “blastocysts (%)” value is recorded as 28.6 ± 0.7%. In data set [3] (extended-IVM 28 h, after IVF), the No. of cleavage stood at 186, the “cleavage (%)” value was found to be 88.3 ± 3.0%, the No. of blastocysts came out at 80 and the “blastocysts (%)” value worked out at 37.4 ± 2.5%. For the same molecule, the blastocyst rates entry in data set [3] (CNP pre-IVM plus extended IVM (novel method)) is “significantly enhances blastocyst rates”. Moreover, the “cleavage rates versus counterparts without CNP pre-IVM” value in data set [3] (CNP pre-treatment followed by extended IVM phase, after IVF) was “significantly higher”. For the same molecule, in data set [4], the “preferable concentration of CNP for meiotic inhibition” value is listed as 100 nM. Further, the “adverse effect on bovine oocytes and subsequent preimplantation embryos” value in data set [5] is listed as “doesn't show any evident adverse effect”. Also, in data set [6] (CNP 50 nM), the “No. of GV oocytes” value turned out to be 64, the “No. of GVBD oocytes” value is 37, the “GV oocytes (%)” value worked out at 63.4 ± 3.1% and the “GVBD oocytes (%)” value is 21.3 ± 3.1%. In data set [6] (CNP 100 nM), the “No. of GV oocytes” value is 68, the “No. of GVBD oocytes” value was 30, the “GV oocytes (%)” value was 69.4 ± 2.6% and the “GVBD oocytes (%)” value was 30.6 ± 2.6%. Moreover, the “rate of oocytes maintaining at GV stage versus control” value in data set [6] (CNP 200 nM, P<0.01) is on record as “significant higher”. Also, in data set [6] (CNP 200 nM), the “No. of GV oocytes” value stood at 79, the “No. of GVBD oocytes” value was found to be 18, the “GV oocytes (%)” value came to 81.4 ± 2.1% and the “GVBD oocytes (%)” value worked out at 19.6 ± 2.1%. In addition, in data set [6] (CNP 400 nM), the “No. of GV oocytes” value is given as 79, the “No. of GVBD oocytes” value came out at 27, the “GV oocytes (%)” value is on record as 74.5 ± 2.8% and the “GVBD oocytes (%)” value is given as 25.5 ± 2.8%. In addition, in data set [6] (concentration higher than 400 nM or lower than 100 nM), the “inhibitory effect on meiotic resumption outside the range” value was “no evident inhibitory effect”. The “concentration of maximal inhibitory effect on meiotic resumption” value in data set [6] (dose-dependent pattern, bovine oocytes) amounted to 200 nM. Further, in data set [6] (pre-IVM pretreatment, bovine oocytes), the “concentration range with significant inhibition of oocyte meiotic resumption” value fell in the range of 100 to 400 nM.
